Legend:
[1] = Induction of surgically removed human kidney stone dissolution assessed as increase in calcium concentration after 5 days by flame photometry relative to untreated control; format: functional
[2] = Induction of calcium oxalate dissolution assessed as increase in calcium concentration after 5 days by flame photometry relative to untreated control; format: physicochemical; settings: 120 h
A549 = test: Cytotoxicity against human A549 cells at 500 ug/ml; format: cell-based
L929 = test: Cytotoxicity against mouse L929 cells at 500 ug/ml; format: cell-based
[3] = Inhibition of calcium oxalate crystal formation assessed as change of shift in titration end point by conductometric titration; format: functional

Compound	Activity [2]	Activity [1]	Activity (A549)	Activity (L929)	Activity [3]
O=C1c2ccccc2C(=O)c2c(O)ccc(O)c21 [QUINIZARIN]	205%	833%	Toxic	Toxic	30 µL
O=C1c2ccc(O[C@@H]3O[C@H](CO)[C@H](O)[C@H](O)[C@H]3O)c(O)c2C(=O)c2c(O)ccc(O)c21	513%	1667%			170 µL
O=C1c2ccccc2C(=O)c2c1ccc(O)c2O [ATHRAQUINONES A]	246%	717%	Toxic	Toxic	40 µL
O=C1c2ccc(O[C@@H]3O[C@H](CO)[C@@H](O)[C@H](O)[C@H]3O)c(O)c2C(=O)c2c(O)ccc(O)c21	1513%	4833%			180 µL
O=C1c2ccc(O)c(O)c2C(=O)c2c(O)ccc(O)c21 [QUINALIZARIN]	1324%	4167%			90 µL

More lines, main results first:

Activity [2]	Compound	Activity [1]	Activity (A549)	Activity (L929)	Activity [3]
595%	O=C1c2ccccc2C(=O)c2c1ccc(O[C@@H]1O[C@H](CO)[C@@H](O)[C@H](O)[C@H]1O)c2O	1583%	Non-toxic	Non-toxic	80 µL
541%	O=C1c2ccccc2C(=O)c2c(O[C@@H]3O[C@H](CO)[C@@H](O)[C@H](O)[C@H]3O)ccc(O)c21	2000%	Non-toxic	Non-toxic	60 µL
432%	O=C1c2ccccc2C(=O)c2c1ccc(O[C@@H]1O[C@H](CO)[C@H](O)[C@H](O)[C@H]1O)c2O	1500%	Non-toxic	Non-toxic	70 µL

— ChEMBL document CHEMBL1154836, “Synthesis of glycoside derivatives of hydroxyanthraquinone with ability to dissolve and inhibit formation of crystals of calcium oxalate. Potential compounds in kidney stone therapy” (Eur J Med Chem, 2010)
